Reference: patent US4539037A, “Urease inhibited urea based fertilizer compositions containing N-aryl-N-aliphatic phosphorotriamide compounds” (Allied Corporation, priority 1983, dated 1985)

How the values were obtained:
soil urease [1] = experiment: Soil urease inhibition test (urea remaining after incubation in Cazenovia sandy loam, 25° C., 3 days); assay type: biochemical; conditions: for % Inhibition 20 μmg: 20 micrograms test compound per 20 g soil
Procedure: The inhibition tests were run in a New York soil (Cazenovia sandy loam, pH 7.2). […] The bottle was capped with perforated aluminum foil and incubated at 25° C. for 3 days prior to extraction with 100 mL 2M KCl containing 0.5 mg phenylmercuric acetate. The extracts were then analyzed for remaining urea using an auto analyzer. Percent inhibition was calculated as
% Inhibition=[-1(A-B/A-C)]×100
where A is urea recovered from unincubated sample (urea added to soil and immediately extracted); B is urea recovered from inhibited sample; and C is urea recovered from the control (uninhibited sample).

soil urease [2] = experiment: Urea hydrolyzed vs. time in soil at elevated temperature (35° C.); assay type: biochemical; conditions: soil at 35° C., 10 micrograms of urease inhibitor per gram of soil; for urease inhibiting effect at 35° C. (FIGURE, in words): sampled every two days, period of 12 days
Procedure: FIG. 1 is a graph of urea hydrolyzed vs. time at 35° C. using 10 micrograms of urease inhibitor per gram of soil.
Several representative N-alkyl-N-aryl phosphoric triamide compounds useful in the practice of this invention were tested to determine their relative effectiveness or urease inhibitors. The inhibition tests were run in a New York soil (Cazenovia sandy loam, pH 7.2). Evaluations (run in triplicate) consisted of applying 800 and 20 micrograms of test compound in 5 mL water and 42.8 mg urea in 1 mL water to 20 g air-dry soil in a glass bottle. The bottle was capped with perforated aluminum foil and incubated at 25° C. for 3 days prior to extraction with 100 mL 2M KCl containing 0.5 mg phenylmercuric acetate. The extracts were then analyzed for remaining urea using an auto analyzer. Percent inhibition was calculated as
Employing the procedure of EXAMPLES VII to IX a series of test were conducted to show improved efficiency of N-aliphatic-N-arylphosphoric triamides at elevated temperature as compared to the efficiency of phenylphosphorodiamidate, a prior art urease inhibitor. This test was conducted similarly to the test previously described, but soil samples were taken every two days and analyzed for urea content.

soil urease [3] = conditions: stated for a known compound; cited from earlier work
[4] = Table II, procedure of Examples VII to IX
[5] = Table II, procedure of Examples VII to IX, 800 micrograms test compound per 20 g soil

Row | Compound | % Inhibition 20 μmg (soil urease [1]; [4]) | % Inhibition 800 μmg (soil urease [1]; [5]) | urease inhibiting effect at 35° C. (FIGURE, in words) (soil urease [2]) | also measured
1 | NP(N)(=O)Nc1ccc([N+](=O)[O-])cc1 [Comp I] | 30% | 81% | – | –
2 | NP(N)(=O)Oc1ccccc1 [phenyl phosphorodiamidate] | – | – | much less effective | time to essentially complete urea hydrolysis (soil urease [2]): 6 days; urease inhibiting effect at 25° C. (in words) (soil urease [3]): excellent urease inhibiting effect
3 | NP(N)(=O)Nc1ccccc1 [Comp II] | 19% | 74% | – | –
4 | COc1ccc(N(C)P(N)(N)=O)cc1 [VIII] | – | – | – | % Inhibition 800 μmg (soil urease [1]; Table I, 800 micrograms test compound + 42.8 mg urea per 20 g air-dry soil (pH 7.2), triplicate): 47%
5 | N-Methyl-N-(4-nitrophenyl) Phosphoric Triamide [IX] | – | – | excellent inhibitor | –
